Laboratory results reported in patent publication US7704995B2 (Exelixis, Inc., priority 2003, dated 2010).
Where two headings read alike, the source gives them in different places.

Molecular target: T1, Chk1 (Homo sapiens, UniProt O14757)
T1 construct: purchased Upstate Biotechnology
T1 sequence (O14757 1-476): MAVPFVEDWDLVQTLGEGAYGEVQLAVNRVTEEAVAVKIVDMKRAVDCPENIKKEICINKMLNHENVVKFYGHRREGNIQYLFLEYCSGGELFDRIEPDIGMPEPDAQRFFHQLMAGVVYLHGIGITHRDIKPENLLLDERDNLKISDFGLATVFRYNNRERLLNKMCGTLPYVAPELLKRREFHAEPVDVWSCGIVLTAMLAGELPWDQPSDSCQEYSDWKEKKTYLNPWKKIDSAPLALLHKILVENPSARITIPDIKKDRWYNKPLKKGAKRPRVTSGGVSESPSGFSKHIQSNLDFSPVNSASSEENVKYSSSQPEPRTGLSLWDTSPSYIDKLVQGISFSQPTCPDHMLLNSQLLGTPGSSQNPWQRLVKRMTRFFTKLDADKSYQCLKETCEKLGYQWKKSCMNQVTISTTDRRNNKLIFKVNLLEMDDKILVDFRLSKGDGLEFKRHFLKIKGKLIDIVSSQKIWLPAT
Assay: Chk1 kinase assay: incorporation of γ-33P ATP into immobilized myelin basic protein
Format: biochemical
Conditions: read-out: Chk1 IC50
Description: Chk1 and Chk2 assays were performed by measuring incorporation of γ-^33P ATP into immobilized myelin basic protein (MBP). High binding white 384 well plates (Greiner) were coated with MBP (Sigma #M-1891) by incubation of 60 ul/well of 20 μg/ml MBP in Tris-buffered saline (TBS; 50 mM Tris pH 8.0, 138 mM NaCl, 2.7 mM KCl) for 24 hours at 4° C. Plates were washed 3× with 100 μl TBS. Kinase reactions were carried out in a total volume of 34 μl in kinase buffer (5 mM Hepes pH 7.6, 15 mM NaCl, 0.01% bovine gamma globulin (Sigma #I-5506), 10 mM MgCl2, 1 mM DTT, 0.02% TritonX-100). Compound dilutions were performed in DMSO and added to assay wells to a final DMSO concentration of 1%. Each data point was measured in duplicate, and at least two duplicate assays were performed for each individual compound determination. Chk1 and Chk2 enzymes (Upstate Biotechnology) were added to final concentrations of 10 nM (Chk1) or 20 nM (Chk2). A mixture of unlabeled ATP and γ-^33P ATP was added to start the reaction (2×10^6 cpm of γ-^33P ATP per well (3000 Ci/mmole) and either 10 μM or 30 μM unlabeled ATP (for Chk1 and Chk2 assays respectively). The reaction was carried out for 1 hour at room temperature with shaking. Plates were washed 7× with TBS, followed by the addition of 50 μl/well scintillation fluid (Wallac). Plates were read using a Wallac Trilux counter. This is only one format of such assays, various other formats are possible, as known to those skilled in the art.
The above assay procedure can be used to determine the IC50 for inhibition and/or the inhibition constant Ki. The IC50 is defined as the concentration of compound required to reduce the enzyme activity by 50% under the conditions of the assay. […] The Ki for a compound may be determined from the IC50 based on three assumptions. First, only one compound molecule binds to the enzyme and there is no cooperativity. […] Third, the enzymatic rate of the enzyme-inhibitor complex is zero. The rate (i.e., compound concentration) data are fitted to the equation: […]

[1] = Table 11, Chk1 only, class symbols A-D

Row | Structure (SMILES) | IC50 (Table 11, Chk1 only) [nM] | IC50 [nM] | further results
1 | CNC(=O)c1nc(-c2cccc(CNCc3cnc(C)cn3)c2)cnc1N [Example 435, 3-amino-N-methyl-6-[3-({[(5-methylpyrazin-2-yl)methyl]amino}methyl)phenyl]pyrazine-2-carboxamide] | 50 to 1000 |  | 
2 | Nc1ncc(-c2cccc(C(=O)NCc3cccc(Cl)c3F)c2)nc1C(=O)N[C@H]1CCCNC1 [Example 997, 3-amino-6-[3-({[(3-chloro-2-fluorophenyl)methyl]amino}carbonyl)phenyl]-N-[(3S)-piperidin-3-yl]pyrazine-2-carboxamide] |  |  | IC50 [1]: < 50 nM
3 | CNC(=O)c1nc(-c2cccc(NC(=O)NCc3ccccc3)c2)cnc1N [Example 168, 3-amino-N-methyl-6-[3-({[(phenylmethyl)amino]carbonyl}amino)phenyl]pyrazine-2-carboxamide] |  | 50 to 1000 | 
4 | CNC(=O)c1nc(-c2cccc(COCc3ccccc3)c2)cnc1N [Example 314, 3-amino-N-methyl-6-(3-{[(phenylmethyl)oxy]methyl}phenyl)pyrazine-2-carboxamide] |  | 50 to 1000 | 
5 | Cc1ccc(CNC(=O)c2cccc(-c3cnc(N)c(C(=O)N[C@H]4CCCNC4)n3)c2)cc1F [Example 1018, 3-amino-6-[3-({[(3-fluoro-4-methylphenyl)methyl]amino}carbonyl)phenyl]-N-[(3S)-piperidin-3-yl]pyrazine-2-carboxamide] |  |  | IC50 [1]: < 50 nM
6 | CNC(=O)c1nc(-c2cccc(OC)c2)cnc1N [Example 60, 3-amino-N-methyl-6-[3-(methyloxy)phenyl]pyrazine-2-carboxamide] |  | 1000 to 10000 | 
7 | CNC(=O)c1nc(-c2cccc(C(N)=O)c2)cnc1N [Example 85, 3-amino-6-[3-(aminocarbonyl)phenyl]-N-methylpyrazine-2-carboxamide] |  | 1000 to 10000 | 
8 | Nc1ncc(-c2cccc(CNS(=O)(=O)c3ccc(OC(F)(F)F)cc3)c2)nc1C(=O)N[C@H]1CCCNC1 [Example 916, 3-amino-N-[(3S)-piperidin-3-yl]-6-(3-{[({4-[(trifluoromethyl)oxy]phenyl}sulfonyl)amino]methyl}phenyl)pyrazine-2-carboxamide] |  |  | IC50 [1]: 50 to 1000 nM
9 | CNC(=O)c1nc(-c2noc(C(C)(C)C)n2)cnc1N [Example 74, 3-amino-6-[5-(1,1-dimethylethyl)-1,2,4-oxadiazol-3-yl]-N-methylpyrazine-2-carboxamide] |  | ≥ 10000 | 
10 | CNC(=O)c1nc(-c2cccc(C(=O)NNc3ccccc3F)c2)cnc1N [Example 432, 3-amino-6-(3-{[2-(2-fluorophenyl)hydrazino]carbonyl}phenyl)-N-methylpyrazine-2-carboxamide] | 50 to 1000 |  | 
11 | CCNCCOc1cccc(-c2cnc(N)c(C(=O)N[C@H]3CCCNC3)n2)c1 [Example 964, 3-amino-6-(3-{[2-(ethylamino)ethyl]oxy}phenyl)-N-[(3S)-piperidin-3-yl]pyrazine-2-carboxamide] |  |  | IC50 [1]: < 50 nM
12 | Nc1ncc(-c2cccc(S(=O)(=O)N[C@@H]3CCc4ccccc43)c2)nc1C(=O)N[C@H]1CCNC1 [Example 812, 3-amino-6-(3-{[(1R)-2,3-dihydro-1H-inden-1-ylamino]sulfonyl}phenyl)-N-[(3S)-pyrrolidin-3-yl]pyrazine-2-carboxamide] |  |  | IC50 [1]: 50 to 1000 nM
13 | CNC(=O)c1nc(-c2cccc(-c3noc(-c4ccccc4)n3)c2)cnc1N [Example 136, 3-amino-N-methyl-6-[3-(5-phenyl-1,2,4-oxadiazol-3-yl)phenyl]pyrazine-2-carboxamide] |  | 1000 to 10000 | 
14 | Nc1ncc(-c2cccc(C(=O)NCc3ccc4ccccc4c3)c2)nc1C(=O)N[C@H]1CCCNC1 [Example 851, 3-amino-6-(3-{[(naphthalen-2-ylmethyl)amino]carbonyl}phenyl)-N-[(3S)-piperidin-3-yl]pyrazine-2-carboxamide] |  |  | IC50 [1]: < 50 nM
15 | CNC(=O)c1nc(-c2ccc(OC)c(OC)c2)cnc1N [Example 80, 3-amino-6-[3,4-bis(methyloxy)phenyl]-N-methylpyrazine-2-carboxamide] |  | 1000 to 10000 | 
16 | CNC(=O)c1nc(-c2cccc(NC(=O)c3ccccc3)c2)cnc1N [Example 81, 3-amino-N-methyl-6-{3-[(phenylcarbonyl)amino]phenyl}pyrazine-2-carboxamide] |  | 50 to 1000 | 
17 | Nc1ncc(-c2cccc(C(=O)NCc3c(F)cccc3F)c2)nc1C(=O)N[C@H]1CCCCNC1 [Example 1022, 3-amino-N-[(3S)-azepan-3-yl]-6-[3-({[(2,6-difluorophenyl)methyl]amino}carbonyl)phenyl]pyrazine-2-carboxamide] |  |  | IC50 [1]: < 50 nM
18 | CNC(=O)c1nc(-c2cccc(CNC3CCc4c(F)ccc(F)c43)c2)cnc1N (stereo not drawn) [Example 469, 3-amino-6-(3-{[(4,7-difluoro-2,3-dihydro-1H-inden-1-yl)amino]methyl}phenyl)-N-methylpyrazine-2-carboxamide] | 50 to 1000 |  | 
19 | CNC(=O)c1nc(-c2cccc(C(=O)NCC3CCCC3)c2)cnc1N [Example 253, 3-amino-6-(3-{[(cyclopentylmethyl)amino]carbonyl}phenyl)-N-methylpyrazine-2-carboxamide] |  | 50 to 1000 | 

Continued, in another order:

Row | IC50 (Table 11, Chk1 only) [nM] | IC50 [nM] | Structure (SMILES) | further results
20 | 50 to 1000 |  | CNC(=O)c1nc(-c2cccc(CNC3COc4ccccc43)c2)cnc1N (stereo not drawn) [Example 507, 3-amino-6-{3-[(2,3-dihydro-1-benzofuran-3-ylamino)methyl]phenyl}-N-methylpyrazine-2-carboxamide] | 
21 | ≥ 10000 |  | CN(C)c1nccc(-c2nc(-c3cccc(C(=O)NCc4ccccc4)c3)cnc2N)n1 [Example 609, 3-{5-amino-6-[2-(dimethylamino)pyrimidin-4-yl]pyrazin-2-yl}-N-(phenylmethyl)benzamide] | 
22 | 1000 to 10000 |  | C/C(=N\Nc1ccccc1)c1nc(-c2cccc(C(=O)NCc3ccccc3)c2)cnc1N [Example 641, 3-{5-amino-6-[(1E)-N-phenylethanehydrazonoyl]pyrazin-2-yl}-N-(phenylmethyl)benzamide] | 
23 | ≥ 10000 |  | CC(C)(C)OC(=O)N1CCCC(NC(=O)c2nc(-c3cccc(C(=O)N[C@H]4CCc5ccccc54)c3)cnc2N)C1 (stereo partly drawn) [Example 728, 1,1-dimethylethyl 3-({[3-amino-6-(3-{[(1S)-2,3-dihydro-1H-inden-1-ylamino]carbonyl}phenyl)pyrazin-2-yl]carbonyl}amino)piperidine-1-carboxylate] | 
24 | ≥ 10000 |  | CC(C)(C)OC(=O)N1CCC(NC(=O)c2nc(-c3cccc(C(=O)NCc4ccccc4)c3)cnc2N)C1 (stereo not drawn) [Example 567, 1,1-dimethylethyl 3-({[3-amino-6-(3-{[(phenylmethyl)amino]carbonyl}phenyl)pyrazin-2-yl]carbonyl}amino)pyrrolidine-1-carboxylate] | 
25 | 50 to 1000 |  | CNC(=O)c1nc(-c2cccc(CNC3CCc4c(F)cccc43)c2)cnc1N (stereo not drawn) [Example 473, 3-amino-6-(3-{[(4-fluoro-2,3-dihydro-1H-inden-1-yl)amino]methyl}phenyl)-N-methylpyrazine-2-carboxamide] | 
26 | 50 to 1000 |  | Nc1ncc(-c2cccc(S(=O)(=O)N[C@H]3CCc4ccccc43)c2)nc1C(=O)NC1CCCNC1 (stereo partly drawn) [Example 803, 3-amino-6-(3-{[(1S)-2,3-dihydro-1H-inden-1-ylamino]sulfonyl}phenyl)-N-piperidin-3-ylpyrazine-2-carboxamide] | 
27 | 50 to 1000 |  | CCN1CC[C@H](NC(=O)c2nc(-c3cccc(C(=O)NCc4ccccc4)c3)cnc2N)C1 [Example 700, 3-amino-N-[(3S)-1-ethylpyrrolidin-3-yl]-6-(3-{[(phenylmethyl)amino]carbonyl}phenyl)pyrazine-2-carboxamide] | 
